Measured values: ChEMBL document CHEMBL5096219, “Design, synthesis and biological evaluation of novel pyrazinone derivatives as PI3K/HDAC dual inhibitors” (Bioorg Med Chem, 2022)
One block for each molecule: values may come before it.

Tests used:
[1] = system: MV4-11; experiment: Induction of cell cycle arrest in human MV4-11 cells assessed as accumulation of cells at S phase at 1 uM incubated for 48 hrs by […]PI staining based flow cytometry (reference value: 45.5%); type: functional
[2] = system: MV4-11; experiment: Induction of apoptosis in human MV4-11 cells assessed as late apoptotic cells at 1 uM incubated for 48 hrs by Annexin V-FITC/PI staining based flow cytometry (reference value: 2.04%); type: functional
[3] = system: MV4-11; experiment: Induction of cell cycle arrest in human MV4-11 cells assessed as accumulation of cells at G2/M phase at 1 uM incubated for 48 hrs by […]PI staining based flow cytometry (reference value: 11.5%); type: functional
[4] = system: MV4-11; experiment: Induction of apoptosis in human MV4-11 cells assessed as early apoptotic cells at 1 uM incubated for 48 hrs by Annexin V-FITC/PI staining based flow cytometry (reference value: 0.95%); type: functional
[5] = system: MV4-11; experiment: Induction of cell cycle arrest in human MV4-11 cells assessed as accumulation of cells at G0/G1 phase at 1 uM incubated for 48 hrs by […]PI staining based flow cytometry (reference value: 33.1%); type: functional
[6] = system: MV4-11; experiment: Induction of apoptosis in human MV4-11 cells assessed as necrotic cells at 1 uM incubated for 48 hrs by Annexin V-FITC/PI staining based flow cytometry (reference value: 0.51%); type: functional
[7] = system: MV4-11; experiment: Induction of apoptosis in human MV4-11 cells assessed as viable cells at 1 uM incubated for 48 hrs by Annexin V-FITC/PI staining based flow cytometry (reference value: 96.5%); type: functional; conditions: read-out: Activity
[8] = target: T1, Protein deacetylase HDAC6 (Homo sapiens, UniProt Q9UBN7); experiment: Inhibition of HDAC6 (unknown origin)
T1 sequence (Q9UBN7 whole entry): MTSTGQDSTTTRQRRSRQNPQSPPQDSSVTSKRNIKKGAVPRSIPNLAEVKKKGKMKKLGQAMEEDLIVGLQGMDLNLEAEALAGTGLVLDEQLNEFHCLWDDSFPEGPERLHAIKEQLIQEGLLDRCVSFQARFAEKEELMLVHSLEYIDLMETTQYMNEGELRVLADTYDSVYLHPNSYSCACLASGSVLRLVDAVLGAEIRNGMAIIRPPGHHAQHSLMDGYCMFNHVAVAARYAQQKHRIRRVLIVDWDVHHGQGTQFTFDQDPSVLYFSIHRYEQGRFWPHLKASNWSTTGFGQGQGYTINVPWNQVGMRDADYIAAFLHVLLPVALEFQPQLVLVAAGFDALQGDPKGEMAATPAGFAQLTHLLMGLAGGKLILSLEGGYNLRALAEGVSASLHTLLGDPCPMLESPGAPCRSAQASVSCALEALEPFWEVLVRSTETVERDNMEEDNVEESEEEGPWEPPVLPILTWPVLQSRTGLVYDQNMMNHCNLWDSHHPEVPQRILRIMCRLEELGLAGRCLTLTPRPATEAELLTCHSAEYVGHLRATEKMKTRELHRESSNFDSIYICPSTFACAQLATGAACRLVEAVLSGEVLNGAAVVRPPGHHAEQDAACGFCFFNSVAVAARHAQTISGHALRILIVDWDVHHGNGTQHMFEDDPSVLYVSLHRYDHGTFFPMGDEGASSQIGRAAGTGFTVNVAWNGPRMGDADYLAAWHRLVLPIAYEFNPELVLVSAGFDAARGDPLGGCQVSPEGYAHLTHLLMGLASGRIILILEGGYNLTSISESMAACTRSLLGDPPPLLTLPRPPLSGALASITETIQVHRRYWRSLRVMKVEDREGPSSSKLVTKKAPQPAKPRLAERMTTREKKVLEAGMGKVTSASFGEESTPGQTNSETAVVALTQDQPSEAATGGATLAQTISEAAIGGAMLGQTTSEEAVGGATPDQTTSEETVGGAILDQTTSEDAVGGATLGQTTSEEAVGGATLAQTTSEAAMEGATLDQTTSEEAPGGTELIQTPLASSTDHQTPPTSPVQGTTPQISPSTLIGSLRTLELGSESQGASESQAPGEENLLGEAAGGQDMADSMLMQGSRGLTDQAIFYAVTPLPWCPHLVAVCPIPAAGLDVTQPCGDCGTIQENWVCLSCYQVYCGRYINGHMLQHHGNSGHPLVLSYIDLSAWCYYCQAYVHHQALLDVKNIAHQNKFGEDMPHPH

[9] = system: K562; experiment: cells; type: functional, cell-based; conditions: Homo sapiens, K562, 72 h
Description: Antiproliferative activity against human K562 cells assessed as inhibition of cell proliferation incubated for 72 hrs by CCK8 assay

[10] = system: HL-60; experiment: cells; type: functional, cell-based; conditions: Homo sapiens, HL-60, 72 h
Description: Antiproliferative activity against human HL-60 cells assessed as inhibition of cell proliferation incubated for 72 hrs by CCK8 assay

[11] = system: MV4-11; experiment: cells; type: functional, cell-based; conditions: Homo sapiens, MV4-11, 72 h
Description: Antiproliferative activity against human MV4-11 cells assessed as inhibition of cell proliferation incubated for 72 hrs by CCK8 assay

[12] = target: T2, Protein deacetylase HDAC6 (Homo sapiens) (UniProt Q9UBN7); conditions: dose 100.0 nM
T2 sequence (whole entry): T1 sequence (Q9UBN7 whole entry)
Description: Inhibition of HDAC6 (unknown origin) at 100 nM

[13] = target: Phosphatidylinositol 4,5-bisphosphate 3-kinase catalytic subunit alpha isoform (Homo sapiens, UniProt P42336); experiment: Inhibition of PI3Kalpha (unknown origin) by mobility shift assay
Phosphatidylinositol 4,5-bisphosphate 3-kinase catalytic subunit alpha isoform, sequence (P42336 whole entry, canonical isoform): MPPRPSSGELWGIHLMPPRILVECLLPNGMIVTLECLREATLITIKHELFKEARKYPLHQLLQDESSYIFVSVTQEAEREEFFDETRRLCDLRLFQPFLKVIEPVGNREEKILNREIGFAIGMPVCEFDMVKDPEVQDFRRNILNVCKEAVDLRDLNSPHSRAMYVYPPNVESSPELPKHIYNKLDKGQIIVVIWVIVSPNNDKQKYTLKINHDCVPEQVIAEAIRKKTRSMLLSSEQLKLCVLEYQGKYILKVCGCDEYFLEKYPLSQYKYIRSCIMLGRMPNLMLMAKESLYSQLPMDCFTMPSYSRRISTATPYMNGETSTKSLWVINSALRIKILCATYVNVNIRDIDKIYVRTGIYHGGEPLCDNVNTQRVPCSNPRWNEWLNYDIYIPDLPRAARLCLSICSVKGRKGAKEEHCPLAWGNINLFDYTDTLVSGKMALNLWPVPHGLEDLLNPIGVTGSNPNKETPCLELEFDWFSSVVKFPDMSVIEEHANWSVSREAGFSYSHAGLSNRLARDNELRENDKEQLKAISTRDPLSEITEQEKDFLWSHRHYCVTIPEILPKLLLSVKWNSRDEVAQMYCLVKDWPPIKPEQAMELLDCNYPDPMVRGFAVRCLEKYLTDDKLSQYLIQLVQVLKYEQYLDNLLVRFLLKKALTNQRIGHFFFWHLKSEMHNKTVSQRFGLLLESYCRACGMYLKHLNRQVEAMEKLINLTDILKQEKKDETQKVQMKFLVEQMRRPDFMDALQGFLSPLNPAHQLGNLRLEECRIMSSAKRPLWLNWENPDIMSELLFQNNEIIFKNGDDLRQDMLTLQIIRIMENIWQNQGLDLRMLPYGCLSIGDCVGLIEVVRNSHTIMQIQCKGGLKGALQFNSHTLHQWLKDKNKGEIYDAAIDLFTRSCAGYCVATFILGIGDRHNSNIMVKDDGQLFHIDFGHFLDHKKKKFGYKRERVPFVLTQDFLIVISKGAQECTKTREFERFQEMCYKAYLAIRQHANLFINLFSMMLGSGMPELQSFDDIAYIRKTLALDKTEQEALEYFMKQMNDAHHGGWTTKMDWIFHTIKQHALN

SMILES: O=C(CCCCCCC(=O)Nc1ccccc1)NO [VORINOSTAT]
Activity [1]: 5.62%
Activity [2]: 12.9%
Activity [3]: 28.6%
Activity [4]: 9.99%
Activity [5]: 43.2%
Activity [6]: 0.93%
viability at 1 µM [7]: 76.1%

SMILES: Nc1cc(C(F)(F)F)c(-c2cc(N3CCOCC3)nc(N3CCOCC3)n2)cn1 [BUPARLISIB]
IC50 [9]: 730 nM
Activity [1]: 34.7%
Activity [2]: 6.42%
Activity [3]: 9.96%
Activity [4]: 1.37%
Activity [5]: 48.1%
Activity [6]: 3.19%
IC50 [10]: 1510 nM
viability at 1 µM [7]: 89%
IC50 [11]: 730 nM

SMILES: O=C(NO)c1ccc(Cn2cc(-c3cccc(O)c3)nc(N3CCOCC3)c2=O)cc1
IC50 [9]: 3840 nM
inhibition [12]: 94%
IC50 [8]: 23 nM
IC50 [13]: 467 nM
IC50 [10]: 1140 nM
IC50 [11]: 90 nM

SMILES: Nc1ncc(-c2cc(N3CCOCC3)c(=O)n(Cc3ccc(C(=O)NO)cc3)c2)cn1
inhibition [12]: 95%
IC50 [8]: 20 nM

SMILES: O=C(NO)c1ccc(Cn2cc(-c3cncnc3)nc(N3CCOCC3)c2=O)cc1
inhibition [12]: 69%
IC50 [8]: 35 nM

SMILES: O=C(NO)c1ccc(Cn2cc(-c3ccc(CO)cc3)nc(N3CCOCC3)c2=O)cc1
IC50 [8]: 15 nM

SMILES: Nc1ncc(-c2cn(CCCCCCC(=O)NO)c(=O)c(N3CCOCC3)n2)cn1
IC50 [9]: 3840 nM
inhibition [12]: 73%
IC50 [8]: 54 nM
IC50 [13]: 127 nM
IC50 [10]: 18400 nM
IC50 [11]: 1980 nM

SMILES: Nc1ncc(-c2cn(CCCCCC(=O)NO)c(=O)c(N3CCOCC3)n2)cn1
IC50 [9]: > 50000 nM
inhibition [12]: 45%
IC50 [8]: 109 nM
IC50 [13]: 157 nM
IC50 [10]: 12700 nM
IC50 [11]: 19700 nM

SMILES: Cn1cc(-c2cn(Cc3ccc(C(=O)NO)cc3)c(=O)c(N3CCOCC3)n2)cn1
IC50 [8]: 21 nM

SMILES: Nc1ncc(-c2cn(Cc3cccc(C(=O)NO)c3)c(=O)c(N3CCOCC3)n2)cn1
IC50 [8]: 650 nM

SMILES: CCCn1cc(-c2cnc(N)nc2)nc(N2CCOCC2)c1=O
IC50 [13]: 25 nM

SMILES: O=C(NO)c1ccc(Cn2cc(-c3cccnc3)nc(N3CCOCC3)c2=O)cc1
inhibition [12]: 92%
IC50 [8]: 15 nM

SMILES: Cc1noc(C)c1-c1cn(Cc2ccc(C(=O)NO)cc2)c(=O)c(N2CCOCC2)n1
IC50 [8]: 32 nM

SMILES: Nc1ncc(-c2cn(CCCCCCCC(=O)NO)c(=O)c(N3CCOCC3)n2)cn1
IC50 [9]: 4560 nM
inhibition [12]: 27%
IC50 [8]: 194 nM
IC50 [13]: 278 nM
IC50 [10]: 9870 nM
IC50 [11]: 1520 nM

SMILES: Nc1ncc(-c2cn(Cc3ccc(C(=O)NO)cc3)c(=O)c(N3CCOCC3)n2)cn1
IC50 [9]: 13800 nM
inhibition [12]: 92%
IC50 [8]: 15 nM
IC50 [13]: 197 nM
IC50 [10]: 21000 nM
IC50 [11]: 4850 nM

SMILES: O=C(NO)c1ccc(Cn2cc(-c3cn[nH]c3)nc(N3CCOCC3)c2=O)cc1
IC50 [8]: 30 nM

The next lines start with the values.

IC50 [8]: 7.4 nM
SMILES: COC1CCN(c2nc(-c3cnc(N)nc3)cn(Cc3ccc(C(=O)NO)cc3)c2=O)CC1

IC50 [8]: 4.2 nM
SMILES: Nc1ncc(-c2cn(Cc3ccc(C(=O)NO)cc3)c(=O)c(N3CCCCC3)n2)cn1

inhibition [12]: 101%
IC50 [8]: 13 nM
SMILES: Nc1ccc(-c2cn(Cc3ccc(C(=O)NO)cc3)c(=O)c(N3CCOCC3)n2)cc1

inhibition [12]: 94%
IC50 [8]: 13 nM
SMILES: Nc1ncc(-c2cc(N3CCOCC3)c(=O)n(Cc3ccc(C(=O)NO)cc3)n2)cn1

IC50 [8]: 7.9 nM
SMILES: O=C(NO)c1ccc(Cn2cc(-c3ccoc3)nc(N3CCOCC3)c2=O)cc1

inhibition [12]: 91%
IC50 [8]: 12 nM
SMILES: Nc1ccc(-c2cn(Cc3ccc(C(=O)NO)cc3)c(=O)c(N3CCOCC3)n2)cn1

IC50 [9]: 590 nM
IC50 [8]: 14 nM
IC50 [10]: 580 nM
IC50 [11]: 70 nM
SMILES: O=C(NO)c1ccc(Cn2cc(-c3cccc(CO)c3)nc(N3CCOCC3)c2=O)cc1

inhibition [12]: 94%
IC50 [8]: 14 nM
SMILES: O=C(NO)c1ccc(Cn2cc(-c3ccc(O)cc3)nc(N3CCOCC3)c2=O)cc1

IC50 [9]: 6120 nM
IC50 [8]: 9.1 nM
IC50 [13]: 336 nM
IC50 [10]: 4290 nM
IC50 [11]: 1370 nM
SMILES: CNc1ncc(-c2cn(Cc3ccc(C(=O)NO)cc3)c(=O)c(N3CCOCC3)n2)cn1

IC50 [8]: 4.2 nM
SMILES: CN1CCN(c2nc(-c3cnc(N)nc3)cn(Cc3ccc(C(=O)NO)cc3)c2=O)CC1

IC50 [8]: 6.9 nM
SMILES: Nc1ncc(-c2cn(Cc3ccc(C(=O)NO)cc3)c(=O)c(Nc3ccccc3)n2)cn1
